In patent publication US8785436B2, “1,3-oxazines as BACE 1 and/or BACE2 inhibitors” (Hoffmann-La Roche Inc., priority 2011, dated 2014):

Tests used:
BACE2 = molecular target: T1, BACE2 (Rattus norvegicus, UniProt Q6IE75); assay: BACE inhibition by measuring cellular TMEM27 cleavage (INS-TMEM27 cells, ELISA); format: cell-based; settings: INS-TMEM27 (Ins1e rat) cells, shed human TMEM27 by ELISA; read-out: BACE2 cell act. IC50
T1 construct: endogenous cellular BACE2 in the Ins1e rat cell line; endogenous in cells; host or cells: INS-TMEM27 (INS1e-derived rat cell line with TetOn-inducible full-length hTMEM27)
T1 sequence (Q6IE75 63-514): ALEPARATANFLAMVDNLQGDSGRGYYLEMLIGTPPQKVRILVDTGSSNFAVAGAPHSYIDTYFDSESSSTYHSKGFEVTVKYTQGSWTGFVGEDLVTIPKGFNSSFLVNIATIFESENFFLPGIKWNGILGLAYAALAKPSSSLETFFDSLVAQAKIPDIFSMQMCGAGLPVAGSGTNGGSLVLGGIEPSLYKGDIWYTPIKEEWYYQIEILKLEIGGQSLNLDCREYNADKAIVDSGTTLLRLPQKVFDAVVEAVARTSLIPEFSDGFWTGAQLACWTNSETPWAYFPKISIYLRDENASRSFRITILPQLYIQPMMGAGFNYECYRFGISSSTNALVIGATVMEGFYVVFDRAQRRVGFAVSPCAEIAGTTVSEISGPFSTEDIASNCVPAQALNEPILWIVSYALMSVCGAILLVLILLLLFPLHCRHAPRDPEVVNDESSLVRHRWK
Excerpt: Assay for BACE Inhibition by Measuring Cellular TMEM27 Cleavage:
The assay uses the principle of inhibition of human TMEM27 cleavage by endogenous cellular BACE2 in the Ins1e rat cell line and shedding from the cell surface into the culture medium, followed by detection in an ELISA assay Inhibition of BACE2 prevents the cleavage and shedding in a dose-dependent manner.
The stable cell line “INS-TMEM27” represents an INS1e-derived cell line with inducible expression (using the TetOn system) of full-length hTMEM27 in a doxycycline-dependent manner. The cells are cultured throughout the experiment in RPMI1640+Glutamax (Invitrogen) Penicillin/Streptomycin, 10% Fetal bovine serum, […], […], 100 micrograms/ml G418 and 100 microgram/ml hygromycin and are grown inadherent culture at 37° C. in a standard CO2 cell culture incubator.
INS-TMEM27 cells are seeded in 96-well plates. After 2 days in culture, BACE2 inhibitor is added in a range of concentrations as required by the assay and after a further two hours, doxycycline is added to a final concentration of 500 ng/ml. The cells are incubated for a further 46 hours and the supernatant harvested for detection of shed TMEM27.
An ELISA assay (using a pair of mouse anti-human-TMEM27 antibodies, raised against the extracellular domain of TMEM27) is used for detection of TMEM27 in the culture medium. An EC50 for BACE2 inhibition is calculated using the ELISA readout for each inhibitor concentration with standard curve-fitting software such as XLFit for the Excel spreadsheet program.

BACE1 = molecular target: T2, BACE1 (Homo sapiens, UniProt P56817); assay: Cellular Aβ-lowering assay a) (Aβ40 ELISA, HEK293 APP cells); format: cell-based; settings: cellular assay a): HEK293 APP695 cells, 18-20 hrs incubation, read-out: BACE1 cell act. Aβ40 IC50
T2 construct: Human HEK293 cells which are stably transfected with a vector expressing a cDNA of the human APP wt gene (APP695); endogenous in cells; host or cells: HEK293 cells stably expressing human APP695 wt
Protocol: Cellular Aβ-Lowering Assay:
a) Human HEK293 cells which are stably transfected with a vector expressing a cDNA of the human APP wt gene (APP695) were used to assess the potency of the compounds in a cellular assay. The cells were seeded in 96-well microtiter plates in cell culture medium (Iscove, plus 10% (v/v) fetal bovine serum, glutamine, penicillin/streptomycin) to about 80% confluence and the compounds were added at a 10× concentration in 1/10 volume of medium without FCS containing 8% DMSO (final concentration of DMSO was kept at 0.8% v/v). After 18-20 hrs incubation at 37° C. and 5% CO2 in a humidified incubator the culture supernatant was harvested for the determination of Aβ40 concentrations. 96 well ELISA plates (e.g., Nunc MaxiSorb) were coated with monoclonal antibody which specifically recognize the C-terminal end of Aβ40 (Brockhaus et al., NeuroReport 9, 1481-1486; 1998). After blocking of non-specific binding sites with e.g. 1% BSA and washing, the culture supernatants were added in suitable dilutions together with a horseradish peroxidase-coupled Aβ detection antibody (e.g., antibody 4G8, Senetek, Maryland Heights, Mo.) and incubated for 5 to 7 hrs. Subsequently the wells of the microtiter plate were washed extensively with Tris-buffered saline containing 0.05% Tween 20 and the assay was developed with tetramethylbenzidine/H2O2 in citric acid buffer. After stopping the reaction with one volume 1 NH2SO4 the reaction was measured in an ELISA reader at 450 nm wavelength. The concentrations of Aβ in the culture supernatants were calculated from a standard curve obtained with known amounts of pure Aβ peptide.

T2 sequence (P56817 46-501): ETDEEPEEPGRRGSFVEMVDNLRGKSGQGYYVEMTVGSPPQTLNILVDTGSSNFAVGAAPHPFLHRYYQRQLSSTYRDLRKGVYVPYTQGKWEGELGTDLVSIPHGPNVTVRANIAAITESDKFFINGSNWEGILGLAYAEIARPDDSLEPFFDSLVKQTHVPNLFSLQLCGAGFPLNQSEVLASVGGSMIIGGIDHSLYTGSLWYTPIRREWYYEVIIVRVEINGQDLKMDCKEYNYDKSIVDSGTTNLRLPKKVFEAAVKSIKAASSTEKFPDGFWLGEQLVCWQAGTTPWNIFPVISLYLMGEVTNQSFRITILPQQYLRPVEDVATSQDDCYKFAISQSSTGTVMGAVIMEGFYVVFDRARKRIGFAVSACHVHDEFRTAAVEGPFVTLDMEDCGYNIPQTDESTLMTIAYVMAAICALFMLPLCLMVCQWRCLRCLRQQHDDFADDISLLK

Cc1nc(C(C)Nc2ccc(F)c([C@@]3(C)N=C(N)OC[C@]3(C)F)c2)c(C(F)(F)F)o1 (mixture of isomers) [Example 14, (4R,5R)-5-Fluoro-4-{2-fluoro-5-[(RS)-1-(2-methyl-5-trifluoromethyl-oxazol-4-yl)-ethylamino]-phenyl}-4,5-dimethyl-5,6-dihydro-4H-[1,3]oxazin-2-ylamine]
IC50 (BACE2): 0.068 µM

C[C@]1(c2cc(NC3CCc4cc(C#N)cnc43)ccc2F)N=C(N)OCC1(F)F (mixture of isomers) [Example 22, (RS)-7-[3-((R)-2-Amino-5,5-difluoro-4-methyl-5,6-dihydro-4H-[1,3]oxazin-4-yl)-4-fluoro-phenylamino]-6,7-dihydro-5H-[1]pyrindine-3-carbonitrile]
IC50 (BACE1): 0.011 µM
IC50 (BACE2): 0.753 µM

C[C@]1(c2cc(NC3CCc4cc(Cl)cnc43)ccc2F)N=C(N)OCC1(F)F (mixture of isomers) [Example 23, [3-((R)-2-Amino-5,5-difluoro-4-methyl-5,6-dihydro-4H-[1,3]oxazin-4-yl)-4-fluoro-phenyl]-((RS)-3-chloro-6,7-dihydro-5H-[1]pyrindin-7-yl)-amine]
IC50 (BACE1): 0.073 µM
IC50 (BACE2): 1.7 µM

C[C@@]1(c2cc(NCc3nn(C(F)F)cc3Cl)ccc2F)CCOC(N)=N1 [Example 1, (S)-4-{5-[(4-Chloro-1-difluoromethyl-1H-pyrazol-3-ylmethyl)-amino]-2-fluoro-phenyl}-4-methyl-5,6-dihydro-4H-[1,3]oxazin-2-ylamine]
IC50 (BACE1): 0.013 µM
IC50 (BACE2): 0.18 µM

COc1ccccc1Nc1ccc(F)c([C@@]2(C)N=C(N)OC[C@@H]2F)c1 [Example 3, (4R,5R)-5-Fluoro-4-[2-fluoro-5-(2-methoxy-phenylamino)-phenyl]-4-methyl-5,6-dihydro-4H-[1,3]oxazin-2-ylamine]
IC50 (BACE1): 0.31 µM
IC50 (BACE2): 0.97 µM

C[C@]1(c2cc(Nc3ccccc3OC(F)F)ccc2F)N=C(N)OC[C@@H]1F [Example 4, (4R,5R)-4-[5-(2-Difluoromethoxy-phenylamino)-2-fluoro-phenyl]-5-fluoro-4-methyl-5,6-dihydro-4H-[1,3]oxazin-2-ylamine]
IC50 (BACE1): 0.37 µM
IC50 (BACE2): 1.81 µM

C[C@]1(c2cc(NCc3cccs3)ccc2F)N=C(N)OC[C@@H]1F [Example 5, (4R,5R)-5-Fluoro-4-{2-fluoro-5-[(thiophen-2-ylmethyl)-amino]-phenyl}-4-methyl-5,6-dihydro-4H-[1,3]oxazin-2-ylamine]
IC50 (BACE1): 0.54 µM
IC50 (BACE2): 1.13 µM

C[C@]1(c2cc(NCc3ccccc3F)ccc2F)N=C(N)OC[C@@H]1F [Example 7, (4R,5R)-5-Fluoro-4-[2-fluoro-5-(2-fluoro-benzylamino)-phenyl]-4-methyl-5,6-dihydro-4H-[1,3]oxazin-2-ylamine]
IC50 (BACE1): 0.78 µM
IC50 (BACE2): 0.24 µM

C[C@]1(c2cc(NCC3CC3)ccc2F)N=C(N)OC[C@@H]1F [Example 8, (4R,5R)-4-[5-(Cyclopropylmethyl-amino)-2-fluoro-phenyl]-5-fluoro-4-methyl-5,6-dihydro-4H-[1,3]oxazin-2-ylamine]
IC50 (BACE1): 0.022 µM
IC50 (BACE2): 0.164 µM

C[C@]1(F)COC(N)=N[C@]1(C)c1cc(NCc2nn(C(F)F)cc2Cl)ccc1F [Example 12, (4R,5R)-4-{5-[(4-Chloro-1-difluoromethyl-1H-pyrazol-3-ylmethyl)-amino]-2-fluoro-phenyl}-5-fluoro-4,5-dimethyl-5,6-dihydro-4H-[1,3]oxazin-2-ylamine]
IC50 (BACE1): 0.039 µM
IC50 (BACE2): 0.588 µM

Cn1cc(Cl)c(CNc2ccc(F)c([C@@]3(C)N=C(N)OC[C@]3(C)F)c2)n1 [Example 13, (4R,5R)-4-{5-[(4-Chloro-1-methyl-1H-pyrazol-3-ylmethyl)-amino]-2-fluoro-phenyl}-5-fluoro-4,5-dimethyl-5,6-dihydro-4H-[1,3]oxazin-2-ylamine]
IC50 (BACE1): 0.048 µM
IC50 (BACE2): 0.079 µM
